Test results as given in patent publication US7157494B2, “Dimeric compounds and their use as anti-viral agents” (priority 2001, dated 2007).
≈ marks a conversion by molar mass, not a printed value. Where “and” joins values, the source holds several entries; their conditions need not be identical. Identical values can stand only once. Like-named read-outs stand apart in the source and are kept apart here.

What was measured:
[1] = system: A/New Caledonia/20/99 BVLV008 (H1N1); test: Plaque reduction assay (PRA) in MDCK cells; type: cell-based, influenza A H1N1; settings: for EC50: Influenza A virus, H1N1, MDCK, reduces plaque numbers by 50%, A/New Caledonia/20/99 (H1N1)
Protocol: (§1) Madin Darby Canine Kidney (MDCK) cells are seeded into six well tissue culture plates and grown to confluency via standard methods. Influenza viruses are diluted in a minimal volume of phosphate buffered saline supplemented with 0.2% bovine serum albumin to yield an estimated titre of 50–100 plaque forming units (pfu) per well. After adsorption to the MDCK cells for one hour at 37° C. in a 5% CO2 atmosphere the viral inocula is aspirated and replaced with viral growth media (minimal Eagle's media supplemented with BSA, trypsin and insulin/transferrin/selenium at optimal concentrations) containing sufficient agar or agarose (generally 1–2%) to cause the media to gel at room temperature and at 37° C. in a 5% CO2 atmosphere until plaques develop (generally 2–4 days). Plaques can be visualised with a suitable stain (e.g. 0.4% crystal violet in formal saline) before counting.

[2] = system: A/Panama/2007/99 BVLV008 (H3N2); test: Plaque reduction assay (PRA) in MDCK cells; type: cell-based, influenza A H3N2; settings: for EC50: Influenza A virus, H3N2, MDCK, reduces plaque numbers by 50%, A/Panama/2007/99 (H3N2), read-out: EC50 PRA A/Pan
Protocol: as §1

[3] = system: A/Victoria/3/75 BVLV017 (H3N2); test: Plaque reduction assay (PRA) in MDCK cells; type: cell-based, influenza A H3N2; settings: for EC50: Influenza A virus, MDCK, reduces plaque numbers by 50%, A/Victoria/3/75 (H3N2), read-out: EC50 PRA A/Vic
Protocol: as §1

B/Hong Kong/5/72 BVLV012 = test: Plaque reduction assay (PRA) in MDCK cells; type: cell-based, influenza B; settings: for EC50: Influenza B virus, MDCK, read-out: EC50 PRA B/HongK
Protocol: as §1

[4] = system: B/Yamanashi/166/98 BVLV007; test: Plaque reduction assay (PRA) in MDCK cells; type: cell-based, influenza B; settings: for EC50: Influenza B virus, MDCK, B/Yamanashi/166/98
Protocol: as §1

[5] = Rat lung retention assay (intra-tracheal dosing, compound level in lung tissue); type: in vivo; settings: for concentration at 48 h / concentration at 168 h: Mean [cmpd] ng/g; for [cmpd] / Mean [cmpd]: rat lung tissue; for [cmpd]: individual animal
Protocol: Rodents are anaesthetised and dosed with compound of interest by the intra-tracheal route at a dose volume of 0.8 ml/kg. The rodent is then held in the vertical position until full recovery is achieved. […] Any analytical method suitable for detection of this type of compound may be used. The time at which levels of compound fall below the sensitivity of the analytical techniques identified will determine the residency time of the compound in lung tissue.
Please note that all experiments included a co-dosed internal standard, namely compound 3 of International Patent Publication No. WO 02/20514, to permit comparison. The data are expressed as a ratio with respect to this compound, the structure of which is shown below.

Influenza A/Sydney/5/97 = type: cell-based; settings: concentration that inhibited CPE by 50%; MDCK cells, up to 72 hours, MTT
Influenza B/Harbin/7/95 = type: cell-based; settings: concentration that inhibited CPE by 50%; MDCK cells, up to 72 hours, MTT
[6] = system: A/Bayern/7/95 BVL006 (H1N1); test: Plaque reduction assay (PRA) in MDCK cells; type: cell-based, influenza A H1N1
Protocol: as §1

A/WSN/33 BVLV09 (H1N1) = test: Plaque reduction assay (PRA) in MDCK cells; type: cell-based, influenza A H1N1
Protocol: as §1

[7] = system: A/Sydney/5/97 BVLV015 (H3N2); test: Plaque reduction assay (PRA) in MDCK cells; type: cell-based, influenza A H3N2
Protocol: as §1

NC12CC3CC(CC(C3)C1)C2 [Amantadine]
EC50 [1]: 11 ng/mL (≈ 72.7 nM)
EC50 [2]: 157 ng/mL (≈ 1040 nM)
EC50 [3]: 220 ng/mL (≈ 1450 nM)
EC50 (B/Hong Kong/5/72 BVLV012; reduces plaque numbers by 50%, B/Hong Kong/5/72): > 10000 ng/mL
EC50 ([4]; reduces plaque numbers by 50%, read-out: EC50 PRA B/Yam): 2060 ng/mL (≈ 13600 nM)

CC(=O)N[C@H]1[C@H]([C@H](OC(=O)NCCCCNC(=O)c2cccc(C(=O)NCCCCNC(=O)O[C@@H]([C@@H]3OC(C(=O)O)=C[C@H](NC(=N)N)[C@H]3NC(C)=O)[C@H](O)CO)c2)[C@H](O)CO)OC(C(=O)O)=C[C@@H]1NC(=N)N [Compound 1]
Ratio Mean [lung] [cmpd]/PCT AU01/01128 compound 3 ([5]; rat, in vivo, 0.1 mg/kg, 48 h): 0.44
Ratio Mean [lung] [cmpd]/PCT AU01/01128 compound 3 ([5]; rat, in vivo, 0.1 mg/kg, 168 h): 0.41
concentration at 48 h ([5]; rat, in vivo, 0.1 mg/kg): 1280 ng/g
concentration at 168 h ([5]; rat, in vivo, 0.1 mg/kg): 372 ng/g

CC(=O)N[C@H]1[C@H]([C@H](OC(=O)NCCCCNS(=O)(=O)c2cccc(S(=O)(=O)NCCCCNC(=O)O[C@@H]([C@@H]3OC(C(=O)O)=C[C@H](NC(=N)N)[C@H]3NC(C)=O)[C@H](O)CO)c2)[C@H](O)CO)OC(C(=O)O)=C[C@@H]1NC(=N)N [Compound 3]
ID50 A/Sydney/5/97 (Influenza A/Sydney/5/97): 0.1 ng/mL (≈ 0.0913 nM)
ID50 B/Harbin/7/95 (Influenza B/Harbin/7/95): 0.07 ng/mL (≈ 0.0639 nM)
Ratio Mean [lung] [cmpd]/PCT AU01/01128 compound 3 ([5]; rat, in vivo, 0.1 mg/kg, 48 h): 0.49
Ratio Mean [lung] [cmpd]/PCT AU01/01128 compound 3 ([5]; rat, in vivo, 0.1 mg/kg, 168 h): 0.36
concentration at 48 h ([5]; rat, in vivo, 0.1 mg/kg): 1410 ng/g
concentration at 168 h ([5]; rat, in vivo, 0.1 mg/kg): 329 ng/g

CC(=O)N[C@@H]1[C@@H](NC(=N)N)C=C(C(=O)O)O[C@H]1C(OC(=O)NCCC(=O)NCc1ccc(CNC(=O)CCNC(=O)O[C@@H]([C@@H]2OC(C(=O)O)=C[C@H](NC(=N)N)[C@H]2NC(C)=O)[C@H](O)CO)cc1)[C@H](O)CO (stereo partly shown) [Compound 4]
ID50 A/Sydney/5/97 (Influenza A/Sydney/5/97): 0.3 ng/mL (≈ 0.302 nM)
ID50 B/Harbin/7/95 (Influenza B/Harbin/7/95): 0.4 ng/mL (≈ 0.402 nM)

CC(=O)N[C@H]1[C@H]([C@H](OC(=O)NCCCNC(=O)c2ccc(C(=O)NCCCNC(=O)O[C@@H]([C@@H]3OC(C(=O)O)=C[C@H](NC(=N)N)[C@H]3NC(C)=O)[C@H](O)CO)cc2)[C@H](O)CO)OC(C(=O)O)=C[C@@H]1NC(=N)N [Compound 5]
EC50 PRA A/Bay [6]: 0.009 ng/mL (≈ 0.00905 nM)
EC50 PRA A/New [1]: 0.06 ng/mL (≈ 0.0603 nM)
EC50 PRA A/WSN (A/WSN/33 BVLV09 (H1N1)): 0.02 ng/mL (≈ 0.0201 nM)
EC50 PRA A/Pan [2]: 0.03 ng/mL (≈ 0.0302 nM)
EC50 PRA A/Syd [7]: 0.05 ng/mL (≈ 0.0503 nM)
EC50 PRA A/Vic [3]: 0.003 ng/mL (≈ 0.00302 nM)
EC50 PRA B/HongK (B/Hong Kong/5/72 BVLV012): 0.316 ng/mL (≈ 0.318 nM)
EC50 PRA B/Yam [4]: 0.022 ng/mL (≈ 0.0221 nM)
[cmpd] ([5]; 48 hrs, 0.1 mg/kg intra-tracheal, 0.1 mg/kg): 1325 ng/g and 750 ng/g and 778 ng/g
Mean [cmpd] ([5]; 48 hrs, 0.1 mg/kg intra-tracheal): 951 ng/g
[cmpd] ([5]; 168 hrs, 0.1 mg/kg intra-tracheal, 0.1 mg/kg): 272 ng/g and 636 ng/g and 300 ng/g
Mean [cmpd] ([5]; 168 hrs, 0.1 mg/kg intra-tracheal): 403 ng/g
Ratio Mean [lung] [cmpd]/PCT AU01/01128 compound 3 ([5]; rat lung, 48 hrs, 0.1 mg/kg intra-tracheal): 0.68
Ratio Mean [lung] [cmpd]/PCT AU01/01128 compound 3 ([5]; rat lung, 168 hrs, 0.1 mg/kg intra-tracheal): 0.41

CC(=O)N[C@H]1[C@H]([C@H](OC(=O)NCCCCCCNC(=O)c2ccc(C(=O)NCCCCCCNC(=O)O[C@@H]([C@@H]3OC(C(=O)O)=C[C@H](NC(=N)N)[C@H]3NC(C)=O)[C@H](O)CO)cc2)[C@H](O)CO)OC(C(=O)O)=C[C@@H]1NC(=N)N [Compound 6]
ID50 A/Sydney/5/97 (Influenza A/Sydney/5/97): 0.2 ng/mL (≈ 0.185 nM)
ID50 B/Harbin/7/95 (Influenza B/Harbin/7/95): 0.9 ng/mL (≈ 0.834 nM)

CC(=O)N[C@H]1[C@H]([C@H](OC(=O)NCCCCCCNC(=O)c2ccccc2C(=O)NCCCCCCNC(=O)O[C@@H]([C@@H]2OC(C(=O)O)=C[C@H](NC(=N)N)[C@H]2NC(C)=O)[C@H](O)CO)[C@H](O)CO)OC(C(=O)O)=C[C@@H]1NC(=N)N [Compound 7]
ID50 A/Sydney/5/97 (Influenza A/Sydney/5/97): 0.7 ng/mL (≈ 0.649 nM)
ID50 B/Harbin/7/95 (Influenza B/Harbin/7/95): 0.8 ng/mL (≈ 0.741 nM)

CC(=O)N[C@H]1[C@H]([C@H](OC(=O)NCCCCCCNC(=O)c2cccc(C(=O)NCCCCCCNC(=O)O[C@@H]([C@@H]3OC(C(=O)O)=C[C@H](NC(=N)N)[C@H]3NC(C)=O)[C@H](O)CO)c2)[C@H](O)CO)OC(C(=O)O)=C[C@@H]1NC(=N)N [Compound 8]
ID50 A/Sydney/5/97 (Influenza A/Sydney/5/97): 0.4 ng/mL (≈ 0.371 nM)
ID50 B/Harbin/7/95 (Influenza B/Harbin/7/95): 0.9 ng/mL (≈ 0.834 nM)

CC(=O)N[C@H]1[C@H]([C@H](OC(=O)NCCCNC(=O)c2cc(C(=O)O)cc(C(=O)NCCCNC(=O)O[C@@H]([C@@H]3OC(C(=O)O)=C[C@H](NC(=N)N)[C@H]3NC(C)=O)[C@H](O)CO)c2)[C@H](O)CO)OC(C(=O)O)=C[C@@H]1NC(=N)N [Compound 9]
ID50 A/Sydney/5/97 (Influenza A/Sydney/5/97): 0.1 ng/mL (≈ 0.0962 nM)
ID50 B/Harbin/7/95 (Influenza B/Harbin/7/95): 0.3 ng/mL (≈ 0.289 nM)

CC(=O)N[C@H]1[C@H]([C@H](OC(=O)NCCCNC(=O)c2cccc(C(=O)NCCCNC(=O)O[C@@H]([C@@H]3OC(C(=O)O)=C[C@H](NC(=N)N)[C@H]3NC(C)=O)[C@H](O)CO)c2)[C@H](O)CO)OC(C(=O)O)=C[C@@H]1NC(=N)N [Compound 11]
ID50 A/Sydney/5/97 (Influenza A/Sydney/5/97): 0.1 ng/mL (≈ 0.101 nM)
ID50 B/Harbin/7/95 (Influenza B/Harbin/7/95): 0.1 ng/mL (≈ 0.101 nM)

CC(=O)N[C@H]1[C@H]([C@H](OC(=O)NCCCNC(=O)c2ccccc2C(=O)NCCCNC(=O)O[C@@H]([C@@H]2OC(C(=O)O)=C[C@H](NC(=N)N)[C@H]2NC(C)=O)[C@H](O)CO)[C@H](O)CO)OC(C(=O)O)=C[C@@H]1NC(=N)N [Compound 12]
ID50 A/Sydney/5/97 (Influenza A/Sydney/5/97): >100 ng/mL
ID50 B/Harbin/7/95 (Influenza B/Harbin/7/95): 0.1 ng/mL (≈ 0.101 nM)

CC(=O)N[C@H]1[C@H]([C@H](OC(=O)NCCCNC(=O)Cc2ccc(CC(=O)NCCCNC(=O)O[C@@H]([C@@H]3OC(C(=O)O)=C[C@H](NC(=N)N)[C@H]3NC(C)=O)[C@H](O)CO)cc2)[C@H](O)CO)OC(C(=O)O)=C[C@@H]1NC(=N)N [Compound 13]
ID50 A/Sydney/5/97 (Influenza A/Sydney/5/97): 0.1 ng/mL (≈ 0.0977 nM)
ID50 B/Harbin/7/95 (Influenza B/Harbin/7/95): 0.3 ng/mL (≈ 0.293 nM)

CC(=O)N[C@H]1[C@H]([C@H](OC(=O)NCCCNC(=O)Cc2ccccc2CC(=O)NCCCNC(=O)O[C@@H]([C@@H]2OC(C(=O)O)=C[C@H](NC(=N)N)[C@H]2NC(C)=O)[C@H](O)CO)[C@H](O)CO)OC(C(=O)O)=C[C@@H]1NC(=N)N [Compound 14]
ID50 A/Sydney/5/97 (Influenza A/Sydney/5/97): 0.2 ng/mL (≈ 0.195 nM)
ID50 B/Harbin/7/95 (Influenza B/Harbin/7/95): 0.3 ng/mL (≈ 0.293 nM)

CCOC(=O)C1=C[C@@H](OC(CC)CC)[C@H](NC(C)=O)[C@@H](N)C1 [Oseltamivir]
EC50 [1]: 0.23 ng/mL (≈ 0.736 nM)
EC50 [2]: 0.3 ng/mL (≈ 0.96 nM)
EC50 [3]: 0.11 ng/mL (≈ 0.352 nM)
EC50 (B/Hong Kong/5/72 BVLV012): 32 ng/mL (≈ 102 nM)
EC50 ([4]; read-out: EC50 PRA B/Yam, reduces plaque numbers by 50%): 0.7 ng/mL (≈ 2.24 nM)
